Measured values taken from patent US6949536B2, “Sulfonylbenzene compounds as anti-inflammatory/analgesic agents” (Pfizer, Inc., priority 1998, dated 2005).
Structures can show the parent of a compound that is named as a salt.

melting point [°C] | SMILES
126 to 128 | CONC(=O)c1cc(-c2ccc(-c3ccco3)cc2)n(-c2ccc(S(C)(=O)=O)c(F)c2)n1 (as salt: hydrochloride) [Example 134, N-Methoxy-1-[3-fluoro-4-(methylsulfonyl)phenyl]-5-[4-(2-furyl)phenyl]-1H-pyrazole-3-carboxamide]
171.8 | NS(=O)(=O)c1ccc(-n2nc(C(F)(F)F)cc2-c2ccc(-c3ccco3)c(Cl)c2)cc1F [Example 138, 4-[5-[3-Chloro-4-(2-furyl)phenyl]-3-(trifluoromethyl)-1H-pyrazol-1-yl]-2-fluorobenzenesulfonamide]
122.9 | Cc1cc(-c2cc(C(F)F)nn2-c2ccc(S(C)(=O)=O)c(F)c2)ccc1-c1cscn1 [Example 194, 4-[4-[3-(Difluoromethyl)-1-[3-Fluoro-4-(methylsulfonyl)phenyl]-1H-pyrazol-5-yl]-2-methylphenyl]-1,3-thiazole]
69 to 75 | Cc1cc(-n2c(C)ccc2-c2ccc(S(C)(=O)=O)cc2)ccc1-c1ccoc1 [Example 39, 1-[4-(3-Furyl)-3-methylphenyl]-2-methyl-5-[4-(methylsulfonyl)phenyl]-1H-pyrrole]
193 to 195 | Cc1cc(-c2ccc(-c3ccoc3)cc2)n(-c2ccc(S(C)(=O)=O)cc2)c1 [Example 56, 2-[4-(3-Furyl)phenyl]-4-methyl-1-[4-(methylsulfonyl)phenyl]-1H-pyrrole]
239 to 240 | CS(=O)(=O)c1ccc(-n2nc(C(N)=O)cc2-c2ccc(-c3ccco3)cc2)cc1F [Example 132, 1-[3-Fluoro-4-(methylsulfonyl)phenyl]-5-[4-(2-furyl)phenyl]-1H-pyrazole-3-carboxamide]
103 to 107 | CS(=O)(=O)c1ccc(-n2nc(C(F)(F)F)cc2-c2ccc(-c3cscn3)cc2)cc1Cl [Example 158, 1-[3-Chloro-4-(methylsulfonyl)phenyl]-5-[4-(4-thiazolyl)phenyl]-3-trifluoromethyl-1H-pyrazole]
173 to 175 | NS(=O)(=O)c1ccc(-n2nc(C(F)(F)F)cc2-c2ccc(-c3cscn3)c(Cl)c2)cc1F (as salt: hydrochloride) [Example 122, 2-Fluoro-4-[5-[3-chloro-4-(1,3-thiazol-4-yl)phenyl]-3-(trifluoromethyl)-1H-pyrazol-1-yl]benzenesulfonamide]
156 to 158 | CS(=O)(=O)c1ccc(-n2nc(C(F)(F)F)cc2-c2ccc(-c3cscn3)c(F)c2)cc1F [Example 105, 4-{4-[1-[3-Fluoro-4-(methylsulfonyl)phenyl]-3-(trifluoromethyl)-1H-pyrazol-5-yl]-2-fluorophenyl}-1,3-thiazole]
190.3 | NS(=O)(=O)c1ccc(-n2nc(C(F)(F)F)cc2-c2ccc(-c3ccco3)cc2)c(Cl)c1 (as salt: hydrochloride) [Example 140, 3-Chloro-4-[5-[4-(2-furyl)phenyl]-3-(trifluoromethyl)-1H-pyrazol-1-yl]benzenesulfonamide]
188 to 190 | CS(=O)(=O)c1ccc(C2=C(c3ccc(-c4ccoc4)cc3)C(=O)OC2)cc1 [Example 34, 3-[4-(3-Furyl)phenyl]-4-[4-(methylsulfonyl)phenyl]-2-(5H)-furanone]
236.8 | CS(=O)(=O)c1ccc(C2=C(c3ccc(-c4cscn4)cc3)C(=O)OC2)cc1 [Example 182, 4-[4-(Methylsulfonyl)phenyl]-3-[4-(1,3-thiazol-4-yl)phenyl]-2(5H)-furanone]
197 to 198 | Cc1cc(-c2nc(C(F)(F)F)cn2-c2ccc(S(C)(=O)=O)c(F)c2)ccc1-c1cscn1 [Example 178, 1-[3-Fluoro-4-(methylsulfonyl)phenyl]-2-[3-methyl-4-(4-thiazolyl)phenyl]-4-trifluoromethyl-1H-imidazole]
108 to 110 | CS(=O)(=O)c1ccc(-n2nc(C(F)(F)F)cc2-c2ccc(-c3cscn3)c(Cl)c2)cc1F [Example 109, 4-{2-Chloro-4-[1-[3-fluoro-4-(methylsulfonyl)phenyl]-3-(trifluoromethyl)-1H-pyrazol-5-yl]phenyl}-1,3-thiazole]
138.9 | COc1cc(-n2nc(C(F)(F)F)cc2-c2ccc(-c3ccco3)cc2)ccc1S(C)(=O)=O (as salt: hydrochloride) [Example 136, 5-[4-(2-Furyl)phenyl]-1-[3-methoxy-4-(methylsulfonyl)phenyl]-3-trifluoromethyl-1H-pyrazole]
196 to 198 | NS(=O)(=O)c1ccc(-n2nc(C(F)(F)F)cc2-c2ccc(-c3cscn3)c(F)c2)cc1F (as salt: hydrochloride) [Example 114, 2-Fluoro-4-[5-[3-fluoro-4-(1,3-thiazol-4-yl)phenyl]-3-(trifluoromethyl)-1H-pyrazol-1-yl]benzenesulfonamide]
170 to 172 | Cc1scnc1-c1ccc(-c2cc(C(F)(F)F)nn2-c2ccc(S(C)(=O)=O)c(F)c2)cc1 [Example 104, 4-{4-[1-[3-Fluoro-4-(methylsulfonyl)phenyl]-3-(trifluoromethyl)-1H-pyrazol-5-yl]phenyl}-5-methyl-1,3-thiazole]
99.5 | Cc1cc(-c2noc(C)c2-c2ccc(S(C)(=O)=O)c(F)c2)ccc1-c1cscn1 [Example 170, 4-[3-Fluoro-4-(methylsulfonyl)phenyl]-5-methyl-3-[3-methyl-4-(1,3-thiazol-4-yl)phenyl]isoxazole]

melting point [°C] | SMILES
179 to 182 | Cc1ccc(-c2ccc(S(C)(=O)=O)c(F)c2)n1-c1ccc(-c2ccco2)cc1 [Example 35, 5-[3-Fluoro-4-(methylsulfonyl)phenyl]-1-[4-(2-furyl)phenyl]-2-methyl-1H-pyrrole]
220 to 222 | CS(=O)(=O)c1ccc(C2=C(c3ccc(-c4ccsc4)cc3)C(=O)OC2)cc1 [Example 32, 3-[4-(3-Thienyl)phenyl]4-[4-(methylsulfonyl)phenyl]-2-(5H)-furanone]
131.9 | Cc1cc(-c2cscn2)ccc1-c1cc(C(F)(F)F)nn1-c1ccc(S(C)(=O)=O)c(F)c1 (as salt: methanesulfonate) [Example 187, 1-[3-Fluoro4-(methylsulfonyl)phenyl]-5-[2-methyl-4-(4-thiazolyl)phenyl]-3-trifluoromethyl-1H-pyrazole]
236 | Cc1noc(-c2ccc(-c3cscn3)cc2)c1-c1ccc(S(N)(=O)=O)cc1 [Example 190, 4-[3-Methyl-5-[4-(1,3-thiazol-4-yl)phenyl]-4-isoxazolyl]benzenesulfonamide]
192.6 | NS(=O)(=O)c1ccc(-n2nc(C(F)(F)F)cc2-c2ccc(-c3ccco3)cc2)cc1Cl (as salt: hydrochloride) [Example 144, 2-Chloro-4-[5-[4-(2-furyl)phenyl]-3-(trifluoromethyl)-1H-pyrazol-1-yl]benzenesulfonamide]
147 to 150 | Cc1ccc(-c2ccc(S(C)(=O)=O)c(F)c2)n1-c1ccc(-c2ccoc2)cc1 [Example 36, 5-[3-Fluoro-4-(methylsulfonyl)phenyl]-1-[4-(3-furyl)phenyl]-2-methyl-1H-pyrrole]
164 to 166 | COc1cc(-c2cc(C(F)(F)F)nn2-c2ccc(S(C)(=O)=O)cc2)ccc1-c1cscn1 (as salt: hydrochloride) [Example 120, 4-{2-Methoxy-4-[1-[4-(methylsulfonyl)phenyl]-3-(trifluoromethyl)-1H-pyrazol-5-yl]phenyl}-1,3-thiazole]
153 to 157 | CS(=O)(=O)c1ccc(-n2ncc(C#N)c2-c2ccc(-c3ccco3)cc2)cc1F [Example 163, 4-Cyano-1-[3-fluoro-4-(methylsulfonyl)phenyl]-5-[4-(2-furyl)phenyl]-1H-pyrazole]
154 to 156 | Cc1cc(-c2ccc(S(C)(=O)=O)cc2)n(-c2ccc(-c3ccoc3)cc2)c1 [Example 55, 1-[4-(3-Furyl)phenyl]-4-methyl-2-[4-(methylsulfonyl)phenyl]-1H-pyrrole]
151 | NS(=O)(=O)c1ccc(-n2nc(C(F)(F)F)cc2-c2ccc(-c3ccco3)cc2)cc1F (as salt: hydrochloride) [Example 137, 2-Fluoro-4-[5-[4-(2-furyl)phenyl]-3-(trifluoromethyl)-1H-pyrazol-1-yl]benzenesulfonamide]
175 to 177 | CS(=O)(=O)c1ccc(-n2nc(C(F)(F)F)cc2-c2ccc(-c3cocn3)cc2)cc1 (as salt: hydrochloride) [Example 95, 4-{4-[1-[4-(Methylsulfonyl)phenyl]-3-(trifluoromethyl)-1H-pyrazol-5-yl]phenyl}-1,3-oxazole]
165 to 168 | Cc1ccc(-c2ccc(S(C)(=O)=O)cc2)n1-c1ccc(-c2ccoc2)c(Cl)c1 [Example 41, 1-[3-Chloro-4-(3-furyl)phenyl]-2-methyl-5-[4-(methylsulfonyl)phenyl]-1H-pyrrole]
72 to 74 | CS(=O)(=O)c1ccc(-n2nc(C(F)(F)F)cc2-c2ccc(-c3ccsc3)cc2)cc1F [Example 87, 1-[3-Fluoro-4-(methylsulfonyl)phenyl]-5-[4-(3-thienyl)phenyl]-3-(trifluoromethyl)-1H-pyrazole]
140 to 142 | CS(=O)(=O)c1ccc(-n2nc(C(F)(F)F)cc2-c2ccc(-c3ncco3)cc2)cc1F [Example 96, 2-{4-[1-[3-Fluoro-4-(methylsulfonyl)phenyl]-3-(trifluoromethyl)-1H-pyrazol-5-yl]phenyl}-1,3-oxazole]
215.8 | CC1(C)OC(=O)C(c2ccc(-c3cscn3)cc2)=C1c1ccc(S(C)(=O)=O)cc1 [Example 166, 5,5-Dimethyl-4-[4-(methylsulfonyl)phenyl]-3-[4-(1,3-thiazol-4-yl)phenyl]-2(5H)-furanone]
133 to 135 | Cc1cc(-c2ccc(S(C)(=O)=O)cc2)n(-c2ccc(-c3ccco3)cc2)c1 [Example 58, 1-[4-(2-Furyl)phenyl]-4-methyl-2-[4-(methylsulfonyl)phenyl]-1H-pyrrole]
87 to 89 | Cc1cc(S(N)(=O)=O)ccc1-n1nc(C(F)(F)F)cc1-c1ccc(-c2ccco2)cc1 (as salt: hydrochloride) [Example 145, 4-[5-[4-(2-Furyl)phenyl]-3-(trifluoromethyl)-1H-pyrazol-1-yl]-3-methylbenzenesulfonamide]
